Data reported in ChEMBL document CHEMBL1201862, “PubChem BioAssay data set” (2004).
Active and inactive are the calls of the source.

How the values were obtained:
[1] = target: Heat shock protein HSP 90-alpha (Homo sapiens, UniProt P07900); assay: Luminescence-based dose response biochemical high throughput screening assay for inhibitors of the Heat Shock Protein 90 (HSP90). [Related pubchem assays: 1831 (Summary AID.), 1846 (Confirmation screen.), 1789 (Primary screen.)]
[2] = cytotoxicity toward Colo320 cells – cell-based, CellTiter-Glo luminescence, IC50, dose response (AID 1117334); format: functional; conditions: COLO 320
[3] = cytotoxicity toward HCT116 cells – cell-based, CellTiter-Glo luminescence, IC50, dose response (AID 1117332); format: functional; conditions: HCT-116
[4] = SNU-C1 cell viability reduction, dose response, CellTiter-Glo luminescence (AID 1117323); format: functional, cell-based
[5] = Concentration-dependent survival of SW480 colon cancer line, luminescence detection with CellTiter-Glo, half-maximal inhibitory concentration (AID 1117338); format: functional
[6] = cytotoxicity toward HT-29 cells – cell-based, CellTiter-Glo luminescence, IC50, dose response (AID 1117330); format: functional
[7] = RKO cell viability reduction, dose response, CellTiter-Glo luminescence (AID 1117322); format: functional
[8] = CellTiter-Glo luminescent dose response of DLD-1 viability loss (AID 1117352); format: functional
fMet-Leu-Phe receptor = fMet-Leu-Phe receptor (Homo sapiens, UniProt P21462); assay: FPR ligands, dose response (AID 519); format: functional
fMet-Leu-Phe receptor, sequence (P21462 whole entry): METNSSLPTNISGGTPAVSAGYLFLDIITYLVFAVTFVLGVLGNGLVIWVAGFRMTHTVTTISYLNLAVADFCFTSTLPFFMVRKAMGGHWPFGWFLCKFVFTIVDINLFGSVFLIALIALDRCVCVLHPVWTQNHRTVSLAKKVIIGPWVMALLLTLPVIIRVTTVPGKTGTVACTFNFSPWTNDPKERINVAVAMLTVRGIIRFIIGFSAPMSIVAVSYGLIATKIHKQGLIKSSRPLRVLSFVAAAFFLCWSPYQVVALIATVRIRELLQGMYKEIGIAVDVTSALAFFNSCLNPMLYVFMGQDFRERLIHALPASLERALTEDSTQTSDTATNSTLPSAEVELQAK

[9] = inhibitors of PGC1a acetylation in cells, dose response, cell-based, cherry-picked samples (AID 720514); format: functional;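 also: potency may reflect raised or lowered acetylation signal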
[10] = intracellular Trypanosoma cruzi inhibitors in host cells – cell-based, plate reader, cherry-pick samples, set 3, dose response (AID 651818); format: functional;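 also: compounds incubated with infected cells for about four days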
[11] = P. falciparum 3D7-ScDHODH growth inhibitors, dose response, SYBR Green, dry powder samples (AID 1159570); format: functional, cell-based;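 also: parasite growth measured after 72 hours of compound exposure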
[12] = P. falciparum ATP4 D1247Y mutant growth inhibitors, dose response, NITD609-resistant line, SYBR Green, dry powder (AID 1159571); format: functional, cell-based;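 also: parasites synchronized at ring stage by sorbitol before testing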
[13] = HepG2 cell cytotoxicity, dose response, cytotoxicity control, plate reader, dry powder samples (AID 1159569); format: functional, cell-based;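 also: inhibitor potency with signal falling toward the positive control level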
[14] = P. falciparum Dd2 growth inhibitors, dose response, SYBR Green, cherry-picked samples (AID 1159567); format: functional, cell-based
[15] = P. falciparum Dd2 growth inhibitors, dose response, SYBR Green, dry powder samples (AID 1159566); format: functional, cell-based;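 also: potency for growth inhibition with lower SYBR green DNA signal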
BJ [16] = assay: cytotoxicity toward BJ-TERT fibroblasts, dose response, cell-based, RAS-independent, luminescence (AID 1933); format: functional; conditions: Homo sapiens
BJ [17] = assay: cells; format: functional, cell-based; conditions: Homo sapiens
[18] = cytotoxicity toward DRD oncogenic fibroblasts, dose response, cell-based, non-viral oncogenic, luminescence (AID 1934); format: functional; conditions: Homo sapiens
[19] = cytotoxicity toward NIH3T3 fibroblasts, dose response, counter-screen, cell-based, ATP luminescence, mouse fibroblasts (AID 2010); format: functional;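 also: cells exposed to compound for about 90 hours before reading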
[20] = inhibitors of intracellular T. cruzi replication, confirmation, NIH3T3 host cells, beta-gal luminescence (AID 2044); format: functional, cell-based;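 also: intracellular parasites grown in NIH/3T3 mouse fibroblasts as host cells; luminescent beta-galactosidase reporter signal from transgenic T. cruzi replicating inside host cells; inhibitors lower the luminescence signal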
[21] = target: T1, Oxysterols receptor LXR-beta (Homo sapiens, UniProt P55055); assay: LXR agonists, Gal4 luciferase reporter, dose response, counter-screen for ssDAF-12 agonist project, cell-based, luminescence, HEK293, S. stercoralis campaign (AID 720737); format: functional; conditions: read-out: IC50 (the source's name)
T1 sequence (P55055 whole entry): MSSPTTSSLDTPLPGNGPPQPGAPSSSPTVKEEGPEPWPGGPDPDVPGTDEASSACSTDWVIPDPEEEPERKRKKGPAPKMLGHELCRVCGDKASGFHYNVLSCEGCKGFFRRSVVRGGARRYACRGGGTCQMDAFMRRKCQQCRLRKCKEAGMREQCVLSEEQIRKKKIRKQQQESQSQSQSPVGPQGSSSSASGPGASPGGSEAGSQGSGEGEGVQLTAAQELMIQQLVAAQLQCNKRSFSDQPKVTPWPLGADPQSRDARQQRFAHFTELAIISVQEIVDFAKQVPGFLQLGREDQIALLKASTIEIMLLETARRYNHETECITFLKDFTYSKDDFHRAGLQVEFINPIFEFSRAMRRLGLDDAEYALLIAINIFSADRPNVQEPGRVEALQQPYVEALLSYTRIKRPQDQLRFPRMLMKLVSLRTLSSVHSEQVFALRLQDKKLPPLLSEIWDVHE

HEK293 [22] = assay: cells; format: functional, cell-based; conditions: Homo sapiens
[23] = Luminescence-based cell-based high throughput dose response assay to identify activators of the DAF-12 from the parasite S. stercoralis (ssDAF-12).; format: functional
[24] = target: T2, Nuclear receptor subfamily 0 group B member 1 (Homo sapiens, UniProt P51843); assay: Luminescence-based cell-based high throughput dose response assay for inhibitors of the orphan nuclear receptor subfamily 0, group B, member 1 (DAX1; NR0B1). [Related pubchem assays (depositor defined):AID504766, AID504790]; format: functional
T2 sequence (P51843 whole entry): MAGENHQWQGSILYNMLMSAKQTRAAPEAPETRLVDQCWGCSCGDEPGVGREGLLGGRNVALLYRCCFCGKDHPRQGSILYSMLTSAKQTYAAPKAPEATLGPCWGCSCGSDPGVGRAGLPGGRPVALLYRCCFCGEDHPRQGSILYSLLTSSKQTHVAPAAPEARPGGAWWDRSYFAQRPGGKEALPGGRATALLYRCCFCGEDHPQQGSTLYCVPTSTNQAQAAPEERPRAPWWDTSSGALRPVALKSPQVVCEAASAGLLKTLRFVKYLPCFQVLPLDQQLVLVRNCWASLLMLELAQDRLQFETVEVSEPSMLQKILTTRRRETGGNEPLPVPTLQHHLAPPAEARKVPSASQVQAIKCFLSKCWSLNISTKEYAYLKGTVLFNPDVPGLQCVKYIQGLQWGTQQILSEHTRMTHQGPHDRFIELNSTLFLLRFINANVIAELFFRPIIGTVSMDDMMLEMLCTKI

Transthyretin = Transthyretin (Homo sapiens, UniProt P02766); assay: Luminescence-based cell-based high throughput dose response assay to identify activators of Transthyretin (TTR) transcription.; format: functional
[25] = HEK293 Cytotoxicity Assay Measured in Cell-Based System Using Plate Reader - 7071-01_Inhibitor_Dose_CherryPick_Activity_Set2.; format: functional
HEK293 [26] = assay: HEK293T cell cytotoxicity, dose response, cytotoxicity control, ATP luminescence, cherry-pick samples (AID 687005); format: functional, cell-based; conditions: Homo sapiens;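 also: cells exposed to compound for 48 hours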
HeLa = assay: HeLa cell cytotoxicity, dose response, cytotoxicity control, ATP luminescence, cherry-pick samples (AID 687004); format: functional, cell-based; conditions: Homo sapiens

SMILES: O=C(CSc1ncccc1C(=O)O)c1ccc2ccccc2c1
- IC50 [1]: 0.391 µM (active)

SMILES: C/C(=C(/OCCOc1ccc(Cl)cc1)c1ccc(Cl)cc1Cl)n1ccnc1 [OMOCONAZOLE]
- IC50 [2]: 5.86 µM (inactive)
- IC50 [3]: > 6.67 µM (inactive)
- IC50 [4]: 2.35 µM (active)
- IC50 [5]: 8.46 µM (inactive)
- IC50 [6]: > 6.67 µM (inactive)
- IC50 [7]: > 6.67 µM (inactive)
- IC50 [8]: 4.18 µM (active)

SMILES: CCc1ccccc1NC(=O)C(C#N)Cc1cccnc1 (stereo unspecified)
- Ki (fMet-Leu-Phe receptor): 31.7 µM (inactive)

SMILES: C[C@H](CO)N1C[C@H](C)[C@H](CN(C)Cc2ccc(Oc3ccccc3)cc2)Oc2c(NC(=O)Nc3ccc4c(c3)OCO4)cccc2C1=O
- AC50 [9]: 16.9 µM (active)
- AC50 [10]: 3.78 µM (active)

SMILES: COc1ccc2c3c([nH]c2c1)[C@@H](CO)N(C(=O)CN(C)C)CC31CCN(CC2CCCCC2)CC1
- AC50 [11]: 0.137 µM (active)
- AC50 [12]: 0.731 µM (active)
- AC50 [13]: 23.7 µM (active)
- AC50 [14]: 0.904 µM (active)
- AC50 [15]: 0.361 µM (active)

SMILES: N#CC1=C(N)Oc2c(ccc3ccccc23)C1c1ccsc1 (stereo unspecified)
- AC50 [9]: 17.7 µM (active)
- EC50 (BJ [16]): 0.182 µM (inconclusive)
- EC50 (BJ [17]): 0.254 µM (active)
- EC50 [18]: 0.221 µM (active)
- EC50 [19]: 0.253 µM (active)
- EC50 [20]: 2.63 µM (active)

SMILES: C/C(=N\Nc1cccc2cccnc12)c1ccccc1O
- EC50 [21]: > 67.5 µM (inactive)
- IC50 (HEK293 [22]): > 67.5 µM (inactive)
- IC50 [23]: > 67.5 µM (inactive)
- IC50 [24]: > 67.5 µM (inactive)

SMILES: CCCc1ccc(OCc2ccc(C(=O)N3CCSCC3)o2)cc1
- IC50 [1]: 0.904 µM (active)

SMILES: Cn1cc(Br)c(C(=O)N2CCc3ccccc32)n1
- EC50 (Transthyretin): > 167 µM (inactive)

SMILES: CO[C@@H](CN(C)Cc1cc(F)ccc1F)[C@@H](C)CN([C@H](C)CO)S(=O)(=O)c1ccc(F)cc1
- AC50 [25]: 28.4 µM (active)
- AC50 (HEK293 [26]): 28.4 µM (active)
- AC50 (HeLa): > 52 µM (inactive)
